Measured values from paper PMC10384675, “Novel Thiazolidine-2,4-dione-trimethoxybenzene-thiazole Hybrids as Human Topoisomerases Inhibitors” (Pharmaceuticals, 2023).

Columns and labels:
hTopo II = molecular target: T1, hTopo II (Homo sapiens, UniProt P11388); test: hTopo II decatenation assay; format: biochemical; parameters: key to Topoisomerase Inhibition hTopo II: (+) inhibition; (−) no inhibition; (+/−) partial inhibition
T1 construct: purchased TopoGEN, Port Orange, FL
Protocol: The linear kDNA (Figure 4a,b, lanes A), decatenated kDNA (Figure 4a,b, lanes B) and the catenated circles of kDNA (Figure 4a,b, lanes C) were used as markers. A parallel experiment was performed using ellipticine as reference molecule.
hTopo I relaxation assays were performed by incubating the substrate (supercoiled pHOT1) with the recombinant hTopo I (TopoGEN, Port Orange, FL, USA) and compounds, as indicated in the supplier protocol (TopoGEN, Port Orange, FL, USA), with some revisions. hTopo II decatenation assays were conducted by incubating the kinetoplast DNA substrate (kDNA) with the hTopo II (TopoGEN, Port Orange, FL) and studied compounds, as indicated in the supplier procedures (TopoGEN, Port Orange, FL, USA), with some changes as in [80].
Figure 4 hTopo II decatenation assay. […] The same experiment was performed using ellipticine (c). Lane 1, decatenated kDNA marker; lane 2, linear kDNA marker; lane 3, CTRL (DMSO), lanes 4–5, ellipticine 10 and 50 µM, respectively.

[1] = system: human MCF-10A non-malignant breast epithelial cells; test: MTT cytotoxicity assay, MCF-10A; format: cell-based; details: 72 h, normal cells
Protocol: (§1) All of the synthesized compounds (7a–f) were studied to test their anticancer activity toward the estrogen receptor-positive (ER+) MCF-7 and the triple-negative MDA-MB-231 breast cancer cells (ER-, PR- and HER-2/Neu not overexpressed) and A2058 melanoma cells. Cells were incubated for 72 h with different concentrations of the compounds, and then the viability was checked by the MTT assay. […] Moreover, we checked the cytotoxicity of all of the synthesized compounds against the human MCF-10A non-malignant breast epithelial cells and mouse BALB/3T3 embryonic fibroblasts, in order to evaluate their selectivity on cancer cells.
(§2) The used cell lines (breast cancer cell lines MCF-7 and MDA-MB-231, melanoma cell line A2058 and human mammary epithelial cell line MCF-10A) were obtained from American Type Culture Collection (ATCC, Manassas, VA, USA) and cultured as already reported. The mouse BALB/3T3 embryonic fibroblasts were also purchased from American Type Culture Collection (ATCC, Manassas, VA, USA) and cultured in DMEM high glucose supplemented with 10% bovine calf serum (BCS) and 100 U mL^−1 penicillin/streptomycin.
(§3) MTT assay (Sigma Aldrich (St. Louis, MO, USA)) was performed for evaluating the in vitro anticancer activities of the compounds, as previously indicated. Different concentrations (0.1, 1, 10, 25, 50, and 100 μM) of the compounds were employed, with a 72 h endpoint. IC50 values were obtained from the percent (%) of control using GraphPad Prism 9 (GraphPad Software, La Jolla, CA, USA).

caspase-9 = test: Caspase-Glo assay, caspase-9; format: cell-based, human; details: MCF-7 cells, at IC50 value, 24 h, vs vehicle
Protocol: (§4) Once established that mitochondria were damaged and cyt c released into the cytoplasm, we evaluated the ability of compound 7e treatment (used at its IC50 value) in modulating caspase activity.
(§5) The caspase-Glo Assay (Caspase-Glo® 3/7, 8 and 9 Assay Systems, Promega Corporation, Madison, WI) was used to detect caspase-3/7, -8 and -9 activities, as reported in [82]. Briefly, cells were grown in white-walled 96-well plates, treated with the compound, and 100 µL of each […] was added.
(§6) Figure 7 Caspase activity in MCF-7 cells. […] Columns mean, bars SD; * p < 0.001; n.s., not significant (treated vs. CTRL).

[2] = system: MDA-MB-231 breast cancer cells; test: MTT cell viability assay, MDA-MB-231; format: cell-based; details: Homo sapiens, 72 h
Protocol: as §1, §2, §3

[3] = system: mouse BALB/3T3 embryonic fibroblasts; test: MTT cytotoxicity assay, BALB/3T3; format: cell-based; details: 72 h, normal cells
Protocol: as §1, §2, §3

MCF-7 cells = test: TUNEL assay; format: cell-based, human; details: at IC50 value, 24 h
Description: Numerous data in the literature indicate that topoisomerase inhibitors are among the most efficient inducers of apoptosis. […] As reference molecule, we adopted ellipticine for this assay, also. […] In contrast, no fluorescence was visible in the DMSO-treated cells used as negative control (Figure 5, CTRL, panel B). These outcomes indicated the ability of the studied compound to induce DNA damage, as ellipticine did, triggering cancer cells death.
Cell apoptosis was detected by means of the TUNEL assay, following the manufacturer’s protocols (CF™488A TUNEL Assay Apoptosis Detection Kit, Biotium, Hayward, CA, USA), with few modifications, as already reported. DAPI staining (0.2 μg/mL, Sigma Aldrich, Milan, Italy) was used for cell nuclei. A fluorescence microscope (Leica DM 6000) was used for the observations at 20× magnification. LAS-X software allowed the acquisition and processing of all of the images, which were representative of three separate experiments.
Figure 5 TUNEL assay. MCF-7 breast cancer cells were exposed to compounds 7e and ellipticine (E) at their IC50 values, or to the vehicle (DMSO) for 24 h. Then, they were further processed, as reported in Section 4, and imaged under a fluorescence microscope (20× magnification). Panels (A), DAPI λex,em= 350 nm/460 nm; panels (B), CF^TM488A, λex,em = 490 nm/515 nm; panels (C) show the merge channel.

caspases 3/7 = test: Caspase-Glo assay, caspase-3/7; format: cell-based, human; details: MCF-7 cells, at IC50 value, 24 h, vs vehicle
Protocol: as §4, §5, §6

T1 sequence (P11388 whole entry): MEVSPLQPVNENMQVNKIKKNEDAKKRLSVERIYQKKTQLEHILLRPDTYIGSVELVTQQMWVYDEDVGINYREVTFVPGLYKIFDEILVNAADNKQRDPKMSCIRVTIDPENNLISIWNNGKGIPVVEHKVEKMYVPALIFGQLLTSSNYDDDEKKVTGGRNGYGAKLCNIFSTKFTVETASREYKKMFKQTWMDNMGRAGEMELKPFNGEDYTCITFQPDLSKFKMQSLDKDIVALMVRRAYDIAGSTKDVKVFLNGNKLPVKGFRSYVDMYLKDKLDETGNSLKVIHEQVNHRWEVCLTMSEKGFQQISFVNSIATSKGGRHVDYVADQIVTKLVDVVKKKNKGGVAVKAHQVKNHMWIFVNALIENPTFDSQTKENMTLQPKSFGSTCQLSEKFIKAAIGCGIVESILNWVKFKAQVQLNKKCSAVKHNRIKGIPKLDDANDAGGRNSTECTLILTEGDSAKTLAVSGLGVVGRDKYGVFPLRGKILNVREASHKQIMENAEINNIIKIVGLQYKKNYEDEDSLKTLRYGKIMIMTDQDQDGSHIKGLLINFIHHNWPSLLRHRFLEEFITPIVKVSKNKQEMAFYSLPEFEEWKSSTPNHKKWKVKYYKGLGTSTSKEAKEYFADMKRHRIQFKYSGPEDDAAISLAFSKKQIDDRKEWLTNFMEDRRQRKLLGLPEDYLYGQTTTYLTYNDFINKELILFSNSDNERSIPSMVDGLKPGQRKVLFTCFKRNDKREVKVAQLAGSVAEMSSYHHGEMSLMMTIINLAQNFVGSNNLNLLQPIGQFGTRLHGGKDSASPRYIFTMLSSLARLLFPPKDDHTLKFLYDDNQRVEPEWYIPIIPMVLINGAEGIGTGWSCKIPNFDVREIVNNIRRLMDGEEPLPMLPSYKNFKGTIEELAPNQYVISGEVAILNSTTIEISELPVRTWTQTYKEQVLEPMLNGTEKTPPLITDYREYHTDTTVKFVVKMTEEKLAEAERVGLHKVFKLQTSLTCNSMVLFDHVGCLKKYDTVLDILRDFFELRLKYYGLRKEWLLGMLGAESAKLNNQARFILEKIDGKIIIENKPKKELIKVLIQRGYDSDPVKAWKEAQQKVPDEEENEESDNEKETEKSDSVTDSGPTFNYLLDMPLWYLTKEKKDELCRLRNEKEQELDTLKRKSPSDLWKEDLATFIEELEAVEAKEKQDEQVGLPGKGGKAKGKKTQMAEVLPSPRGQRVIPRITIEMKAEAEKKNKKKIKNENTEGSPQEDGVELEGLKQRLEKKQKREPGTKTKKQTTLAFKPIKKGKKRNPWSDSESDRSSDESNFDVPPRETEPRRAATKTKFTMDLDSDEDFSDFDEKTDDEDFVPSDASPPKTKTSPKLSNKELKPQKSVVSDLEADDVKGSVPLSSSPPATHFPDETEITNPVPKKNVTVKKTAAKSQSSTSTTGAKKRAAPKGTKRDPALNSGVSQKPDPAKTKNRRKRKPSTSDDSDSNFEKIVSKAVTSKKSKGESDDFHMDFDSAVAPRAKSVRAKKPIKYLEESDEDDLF

Topoisomerase Inhibition hTopo II (hTopo II; 10 µM): −
Topoisomerase Inhibition hTopo II (hTopo II; 50 µM): +
caspase-9 activity (caspase-9): noticeable increase
IC50 [2]: 41.2 ± 0.9 µM
caspases 3/7 activity (caspases 3/7): higher activity
Structure (SMILES): COc1cc(/C=C2\SC(=O)N(CC(=O)Nc3nc(-c4ccc(Br)cc4)cs3)C2=O)cc(OC)c1OC [compound 7e, (Z)-2-(5-(3,4,5-Trimethoxybenzylidene)thiazolidin-2,4-dion-3-yl)-N-(4-(4-bromophenyl)thiazol-2-yl)acetamide]
IC50 [1]: > 100 µM
IC50 [3]: 35 ± 0.6 µM
apoptosis (TUNEL, green nuclear fluorescence) (MCF-7 cells): had undergone the apoptotic process
